Values of other authors as cited in paper PMC13343212, “Hybrid Aminoferrocenes With Nitrate Esters for In Situ Peroxynitrite Generation: Complex Interplay Between Redox Chemistry, NO‐Donor Reactivity, and Aminoferrocene Activation Influences In Vitro Anticancer Activity” (Chembiochem, 2026).

Details: references for RP‐TLC calibration

Row | Compound | LogP of known references
1 | c1cc2cccc3c4cccc5cccc(c(c1)c23)c54 [perylene] | 6.25
2 | c1ccc2cc3ccccc3cc2c1 [anthracene] | 4.50
